The source of these data is patent US20260041093A1, “Ionic Derivatives Of Aromatic Carboxylic Acid For Use As Plant Stimulants, Method For Stimulating Plants And Use Of These Derivatives For Manufacturing Compositions For Stimulating Plants” (FUNDACJA UNIWERSYTETU IM. ADAMA MICKIEWICZA W POZNANIU, priority 2022, published 2026).

Read-outs that look alike come from different tables or passages of the source. Where only a bound is given, the exact number is not on record here.

The test system of test [1] is Pseudomonas syringae pv. Tomato. Put plainly: Direct effect on bacterial infectivity (Example 22). The class given is in vivo. The following applies: tobacco plant, 5 days after infection with solution of bacteria and test substance; control 100. The method, then: Proceeding as in example 21, Pseudomonas syringae pv. Tomato bacteria were tested and incubated in bacterial medium.

The test system of test [2] is tobacco mosaic virus (TMV). Put plainly: Direct effect on TMV infectivity: virus incubated with substance, then Xanthi tobacco leaves infected (Example 21). The class given is in vivo. The following applies: TMV about 3 μg/ml mixed 1:1 with substance 80 mg/L, 30 min; 5 days after infection; control 100. Here is the method:
Sodium 3-chlorosalicylate; 5. Potassium 3-chlorosalicylate; 6. Calcium 3-chlorosalicylate; 7. Magnesium 3-chlorosalicylate (concentration 80 mg/L), in a 1:1 ratio and incubated for 30 min at room temperature. The control variant consisted of TMV incubated in water. All virus suspensions were used to mechanically infect Xanthi tobacco leaves, whose reaction to infection is manifested in easily quantifiable local necrotic spots (hypersensitivity, local infection).
After 5 days, the area of leaf covered by necrotic spots compared to total leaf area was calculated for plants of all variants of treatment.

Test [3] relates to Pseudomonas syringae pv. Tomato (Pst). The following applies: watered twice, Pst 10^5, 2 weeks after infection. The method, then: Tobacco plants at the stage of 3 developed leaves were watered twice, at a weekly interval, with a solution of test substances 1-11 at concentrations of 10, 40, 80 mg/L. The control was tobacco plants watered with water only. One week after the second treatment, a suspension of Pst bacteria at a concentration of 10^5 was spotted into the leaves using an insulin syringe (without a needle). The suspension was prepared from a two-day culture of Pst on solid medium. Protection against biotic stress was evaluated by the proliferation of bacteria in the leaves at the insertion site and the formation of a necrotic spot, compared to the control.
We proceeded as in Example 30, with the effectiveness of protection against biotic stress tested against bacterial cell concentrations raised to about 10^6.

The test system of test [4] is powdery mildew fungus. Put plainly: Protection of tomato against powdery mildew by spraying (Example 35). The class given is in vivo, Lycopersicon Esculentum Mill tomato. The following applies: 40 mg/l, sprayed twice; 2 weeks after pathogen inoculation. Here is the method: […] The control was tomato plants watered only with water. […] The suspension was prepared from culture on solid medium. Protection against biotic stress was evaluated by comparing the area of leaves affected by infection.
Proceeded in the way as described in Example 34, with the difference that plants were sprayed and not watered.

Test [5] concerns powdery mildew fungus. Put plainly: Direct effect on fungal infectivity (Example 23). The class given is in vivo. The following applies: tobacco plant, 5 days after infection with solution of fungus and test substance; control 100. Here is the method:
Proceeding as in Example 21, the test was performed on the powdery mildew fungus, which was then incubated on the medium.

Test [6] has as its system Brome Mosaic Virus (BMV). Put plainly: Protection of barley against Brome Mosaic Virus infection by watering (Examples 28 and 29). The format is in vivo. Particulars: 80 mg/L, watered twice; 2 weeks after infection.
For test [7], the system named is Tobacco Mosaic Virus (TMV). Put plainly: Protection of tobacco against TMV infection by watering twice (Example 24). The format is in vivo, Nicotiana tabacum cv. Xanthi. Particulars: watered twice, 7 days after infection. Here is the method:
Tobacco plants (Nicotiana tabacum) cv. […] 3,5-dichlorosalicylate of choline; 4. 3-chlorosalicylate of sodium, 5. 3-chlorosalicylate of potassium, 6. 3-chlorosalicylate of calcium, 7. 3-chlorosalicylate of magnesium at a concentration of 10 or 40 or 80 mg/L, at one-week intervals. The control was tobacco plants watered only with water. One week after the second treatment of the plants with the preparation, mechanical infection of the leaves with Tobacco Mosaic Virus (TMV) was carried out. This consisted of rubbing carborundum-sprinkled leaves several times with fingers soaked in a suspension of purified virus at a concentration of about 2 μg/ml. In order to evaluate the effectiveness of the tested substances in protection against biotic stresses, the TMV model and tobacco cv. Xanthi characterized by an interaction in the form of hypersensitivity phenomenon, i.e. the formation of easily quantifiable necrotic spots, were used.

Test [8] concerns Pseudomonas syringae pv. Tomato (Pst). Put plainly: Protection of tomato against Pseudomonas syringae pv. Tomato by spraying (Example 33). The format is in vivo, Lycopersicon Esculentum Mill tomato. The following applies: 80 mg/L, sprayed twice; 2 weeks after infection. The method, then: (§1) Tomato plants, at the stage of the first pair of developed true leaves, were watered twice with a solution of substance 1-6 at a concentration of 80 mg/L, at a weekly interval. The control was tomato plants watered only with water. One week after the second treatment, a suspension of Pst bacteria at a concentration of 10^5 was spot-injected into the leaves using an insulin syringe (without a needle). The suspension was prepared from a two-day culture of Pst on solid medium. Protection against biotic stress was evaluated by the proliferation of bacteria in the leaves at the insertion site and the formation of a necrotic spot, compared to the control.
The procedure was followed as in Example 32, with the plants sprayed.

Test [9] shares this test system. Put plainly: Protection of tomato against Pseudomonas syringae pv. Tomato by watering (Example 32). The class given is in vivo. Particulars: 80 mg/L; watered twice; Pst 10^5; 2 weeks after infection. The method, then:
as §1

For test [10], the system named is powdery mildew fungus. The class given is in vivo, tomato. Particulars: 80 mg/L, watered twice; 2 weeks after infection. Here is the method:
Tomato plants, at the stage of the first pair of developed true leaves, were watered twice with a solution of substance 1-32 at a concentration of 80 mg/L, at a weekly interval. The control was tomato plants watered only with water. […] The suspension was prepared from culture on solid medium. Protection against biotic stress was evaluated by comparing the area of leaves affected by infection.

The subject of test [11] is Tobacco Mosaic Virus (TMV). Put plainly: Protection of tobacco against TMV infection by spraying twice (Example 25). The class given is in vivo, Nicotiana tabacum cv. Xanthi. Particulars: sprayed twice, 7 days after infection. The source says:
5-chlorosalicylate of choline; 3. 3,5-dichlorosalicylate of choline; 4. 3-chlorosalicylate of sodium, 5. 3-chlorosalicylate of potassium, 6. 3-chlorosalicylate of calcium, 7.

Consider `C[N+](C)(C)CCO.O=C([O-])c1cc(Cl)cc(Cl)c1O`, for which the “% of necrotic spots” value in test [1] turned out to be 100%; in test [2] it was 95%; in [5] it was 96%. The “% reduction in necrotic spots compared to control” value (“% reduction in necrotic spots” for short) in test [3] (10 mg/L) came out at 27%; in test [3] (40 mg/L), 38%; in test [3] (80 mg/L) it was 84%; in test [6], 77%; in [7] (10 mg/L) it was 36%; in test [7] (40 mg/L), 58%. In addition, the “% reduction in necrotic spots” value in [7] (80 mg/L) is recorded as 96%; in test [8], 57%; in test [9], 59%; in test [10], 85%; in test [11] (10 mg/L), 36%; in [11] (40 mg/L), 47%. The “% reduction in necrotic spots” value in test [11] (80 mg/L) came to 54%. Besides, in [4], the “Reduction in necrotic spots (white patches) compared to control” value was 66%.

On to `C[N+](C)(C)CCO.O=C([O-])c1cc(Cl)ccc1O` [choline 5-chlorosalicylate], for which the “% of necrotic spots” value in test [1] is 98%; in test [2] it was 100%; in [5], 98%. Besides, the “% reduction in necrotic spots” value in test [3] (10 mg/L) is 28%; in [3] (40 mg/L) it was 36%; in test [3] (80 mg/L) it was 80%; in [6], 36%; in test [7] (10 mg/L), 34%; in test [7] (40 mg/L) it was 62%. Besides, the “% reduction in necrotic spots” value in [7] (80 mg/L) is recorded as 98%; in [8] it was 88%; in [9] it was 87%; in test [10], 90%; in test [11] (10 mg/L), 39%; in test [11] (40 mg/L) it was 61%. In [11] (80 mg/L), the “% reduction in necrotic spots” value came to 74%. In [4], the “Reduction in necrotic spots (white patches) compared to control” value turned out to be 68%.

With `O=C([O-])c1cccc(Cl)c1O.[K+]` [potassium 3-chlorosalicylate], the “% of necrotic spots” value in test [1] worked out at 98%; in [2], 95%; in test [5] it was 98%. The “Reduction in necrotic spots (white patches) compared to control” value in [4] is reported as 54%. Further, the “% reduction in necrotic spots” value in test [7] (10 mg/L) was 32%; in test [7] (40 mg/L) it was 65%; in test [7] (80 mg/L), 98%; in [8], 84%; in [9], 87%; in test [10], 84%. In addition, the entries for the “% reduction in necrotic spots” value in [11] (10 mg/L), in [11] (40 mg/L) and in [11] (80 mg/L) were more than 10%, more than 10% and 15%, respectively.

Turning to `O=C([O-])c1cccc(Cl)c1O.[Na+]` [sodium 3-chlorosalicylate], the “% of necrotic spots” value in [1] was 95%; in [2] it was 97%; in test [5] it was 96%. Besides, the “Reduction in necrotic spots (white patches) compared to control” value in [4] came to 55%. The “% reduction in necrotic spots” value is on record as 24% in [7] (10 mg/L); 63% in [7] (40 mg/L); 95% in test [7] (80 mg/L); 51% in [8]; 53% in test [9]; 88% in [10]. Also, the “% reduction in necrotic spots” value is given as 24% in test [11] (10 mg/L), 29% in [11] (40 mg/L) and 55% in test [11] (80 mg/L).

With calcium 3-chlorosalicylate, the results for the “% of necrotic spots” value in test [1], in [2] and in [5] were 97%, 100% and 97%, respectively. The “Reduction in necrotic spots (white patches) compared to control” value in test [4] stood at 62%. Moreover, the “% reduction in necrotic spots” value in test [7] (10 mg/L) is listed as 33%; in [7] (40 mg/L) it was 65%; in [7] (80 mg/L), 97%; in test [8], 82%; in [9] it was 86%; in [10], 69%. Also, the “% reduction in necrotic spots” value stood at 20% in test [11] (10 mg/L), 30% in test [11] (40 mg/L) and 36% in test [11] (80 mg/L).
